Results on one compound are retold here after patent US9603831B2, “Artemisinin and its derivatives for use in the treatment of kidney disease” (Queen Mary & Westfield College, University of London, priority 2012, dated 2017).

Holding throughout (type): in vivo
The subject of test [1] is rats subjected to haemorrhagic shock. The test is described as follows: Organ injury and dysfunction induced by trauma haemorrhage (haemorrhagic shock) in the rat. Conditions: for rise in serum creatinine / rise in serum urea: 4 h after resuscitation; for rise in serum creatinine / rise in serum urea / rise in serum ALT / rise in serum AST / rise in serum creatinine kinase: vs HS-rats; for decline in MAP caused by haemorrhage during the resuscitation phase: vs HS Control. How it is done:
Thirty-five male Wistar rats (271±5 g) were anaesthetised with sodium thiopentone (120 mg/kg i.p., LINK Pharmaceuticals Ltd., West Sussex, UK) and anaesthesia was maintained by supplementary injections (˜10 mg/kg i.v.) of sodium thiopentone as and when required. The animals were placed onto a thermostatically controlled heating mat (Harvard Apparatus Ltd., Kent, UK) and body temperature was maintained at 37±1° C. by means of a rectal probe attached to a homeothermic blanket. A tracheotomy was performed by inserting into the lumen of the trachea a small length of polyethylene tubing [Internal Diameter (ID) 1.67 mm, Portex, Kent, UK] to maintain airway patency and facilitate spontaneous respiration. […] The right carotid artery was cannulated (ID 0.58 mm, Portex) to facilitate the withdrawal of blood using a heparinised syringe. The right jugular vein was cannulated (ID 0.40 mm, Portex) for the administration of Ringer's Lactate (RL), shed blood, test compounds and/or vehicle. The bladder was also cannulated (ID 0.76 mm, Portex) for the collection of urine. Upon completion of the surgical procedure, cardiovascular parameters were allowed to stabilise for a period of 15 min.
After the stabilisation period, blood was withdrawn via the cannula inserted in the right carotid artery in order to achieve a fall in MAP to 35±5 mmHg within 10 min. From this point onwards, MAP was maintained at 35±5 mmHg for a period of 90 min either by further withdrawal of blood during the compensation phase (MAP rises following blood withdrawal due to sympathetic response) or administration of Ringer's Lactate i.v. during the decompensation phase (animals are unable to increase and maintain high MAP). […] At 90 min after initiation of haemorrhage, resuscitation was performed with 20 ml/kg Ringer's Lactate i.v. over a period of 10 min and then half the shed blood mixed with 100 u/ml heparinised saline i.v. over a period of 50 min. At the end of 1 h resuscitation, an i.v. infusion of Ringer's Lactate (1.5 ml/kg/h) was started as fluid replacement and maintained for a further 3 h.
Four hours after the onset of resuscitation, 1.2 ml blood was collected from the right carotid artery and decanted into serum gel tubes (Sarstedt, Numbrecht, Germany), after which the heart was removed to terminate the experiment. The samples were centrifuged (9900 rpm for 3 min) to separate serum from which urea, creatinine, aspartate aminotransferase (AST), alanine aminotransferase (ALT) and creatinine kinase (CK) were measured within 24 hours (Idexx Laboratories Ltd., West Yorkshire, UK). Urine collected during the last 3 h of the experiment was analysed for creatinine levels in order to estimate creatinine clearance as an indicator of glomerular dysfunction and was calculated as follows:
[formula] 1.4 Experimental Design
Rats were randomly allocated into the following groups: • (i) Sham (n=4) • (ii) HS Control (n=10) • (iii) HS+Artesunate 1 mg/kg (n=6) • (iv) HS+Artesunate 3 mg/kg (n=7) • (v) HS+Artesunate 10 mg/kg (n=8)
Sham-operated rats underwent identical surgical procedures but without haemorrhage or resuscitation. Animals received either 10% DMSO (1 ml/kg i.v.) or artesunate (1, 3 or 10 mg/kg i.v.) on resuscitation.
All values described in the text and figures are expressed as mean±standard error of the mean (SEM) for n observations. Each data point represents biochemical measurements obtained from up to 10 separate animals. Statistical analysis was carried out using GraphPad Prism 5.03 (GraphPad Software, San Diego, Calif., USA). Data without repeated measurements was assessed by one-way ANOVA followed by Dunnett's post hoc test. Data with repeated measurements was assessed by two-way ANOVA followed by Bonferroni's post hoc test. A P value of less than 0.05 was considered to be significant.

Test [2] deals with rats subjected to unilateral renal ischaemia/reperfusion. The test is described as follows: Late administration in a recovery rat model of unilateral renal ischaemia/reperfusion injury. Conditions: 0.3 mg/kg i.v. 24 h into reperfusion, measured at 48 h reperfusion, mean±SEM, P<0.05.
Procedure: Thirty-one male Wistar rats (240-270 g, Charles River, Margate, U.K.) were used in this study. Rats were anaesthetised with a ketamine (100 mg/ml) and xylazine (20 mg/ml) mixture (2:1; 1.5 ml/kg, i.p.) and anaesthesia was maintained by supplementary injections (200 μg/kg i.p.) of ketamine/xylazine. Buprenorphine was administered at a dose of 0.1 mg/kg s.c. (0.5 ml/kg). Rats were then, placed onto a thermostatically controlled heating mat (Harvard Apparatus Ltd., Kent, U.K.) set at 37° C. A midline laparotomy was then performed. The anatomical right kidney was removed following permanent ligation of the renal artery and vein. The left renal pedicle (consisting of the renal artery, vein and nerve) was isolated and clamped using a non-traumatic microvascular clamp at time 0 for 30 min. Body temperature was maintained at 35±1° C. during ischaemia by means of measuring rectal temperature with a thermometer. After 30 min of unilateral renal ischaemia, the clamp was removed to allow reperfusion for 48 h. […]
Following the reperfusion period, ˜3.5 ml of blood was taken from the right ventricle of the heart via cardiac puncture into non-heparinised 5 ml syringes and immediately decanted into 1.3 ml serum gel tubes (Sarstedt, Germany). […] All biochemical markers in serum and urine were measured in a blinded fashion by a commercial veterinary testing laboratory (IDEXX Ltd, West Sussex, UK). […] Creatinine clearance is used as an indicator of glomerular dysfunction and is calculated as follows
Fractional excretion of sodium is used as an indicator of tubular dysfunction and is calculated as follows: […]
All data in the text and figures are presented as mean±SEM of n observations, where n represents the number of animals studied. All statistical analysis was calculated using GraphPad Prism 6 (GraphPad Software, San Diego, Calif., USA). Biochemical data was analysed by one-way ANOVA for data representing more than two groups, followed by a Dunnett's post hoc test for comparison of sham/treated groups with the control vehicle. […]
The test system of test [3] is rats subjected to burn injury. As to the kind of experiment: Organ injury and dysfunction induced by burn injury in the rat. Conditions: 3 mg/kg i.v. 30 min prior to and 30 min after burn injury, 6 h after burn. How it is done: Twenty-two male Wistar rats (Harlan, Udine, Italy) weighing 300 to 350 g were anaesthetised with sodium pentobarbital (Eutasil™, 60 mg/kg i.p.; Sanofi Veterinária, Algés, Portugal), which was supplemented as required. Anaesthetised rats were shaved (dorsum and abdomen) and placed onto a thermostatically controlled heating mat (Harvard Apparatus Ltd, Kent, U.K.) and body temperature maintained at 37±1° C. by means of a rectal probe attached to a homeothermic blanket. A tracheotomy was performed to maintain airway patency and to facilitate spontaneous respiration. Thirty minutes prior to burn injury, rats were treated with vehicle or drug, as described in section 3.2. To induce burn injury, a 60% third degree skin burn was induced by immersing dorsal shaved skin in 99° C. water for 10 s using a synthetic foam template. The rats were then dried and placed over the heating mat. Rats were sacrificed at 6 hours after burn injury by overdose of the anaesthetic and serum samples obtained for analysis of organ injury and dysfunction. Rats were randomly allocated into the following groups: • (i) Sham (n=4) • (ii) Burn+10% DMSO (n=10) • (iii) Burn+Artesunate (n=9) Sham-operated rats underwent identical surgical procedures but without burn injury (immersed in room temperature water). Animals received either 10% DMSO (1 ml/kg i.v.) or artesunate (3 mg/kg i.v.) 30 min prior to burn injury and 30 min after burn injury Each data point represents measurements obtained from up to 10 separate animals. Data was assessed using Mann-Whitney U test.

Setting [4] is: 1 mg/kg i.v. on resuscitation, P>0.05.
[5] abbreviates: 3 mg/kg i.v. on resuscitation, P<0.005.
[6] abbreviates: 3 mg/kg i.v. on resuscitation, P<0.05.
The mark [7] stands for this setting: 10 mg/kg i.v. on resuscitation, P<0.005.
[8] abbreviates: 10 mg/kg i.v. on resuscitation, P<0.05.

Structures are written as SMILES.

Turning to `C[C@H]1[C@H](OC(=O)CCC(=O)O)O[C@@H]2O[C@@]3(C)CC[C@H]4[C@H](C)CC[C@@H]1[C@@]24OO3` [artesunate], the “rise in serum creatinine” value is “no significant effect” in test [1] (setting [4]); “significantly attenuated” in test [1] (setting [5]); “significantly attenuated” in test [1] (setting [7]); “significantly attenuated” in test [3] (vs burn + vehicle, P<0.05). In addition, the “rise in serum urea” value in test [1] (setting [4]) was “no significant effect”; in test [1] (setting [6]), “significantly attenuated”; in test [3] (vs burn + vehicle, P<0.05), “significantly attenuated”. The “decline in MAP caused by haemorrhage during the resuscitation phase” value in test [1] (setting [4]) was “failed to attenuate”; in test [1] (3 mg/kg i.v. on resuscitation, P>0.05) it was “failed to attenuate”; in test [1] (10 mg/kg i.v. on resuscitation, P>0.05), “failed to attenuate”. The “rise in serum ALT” value in test [1] (setting [4]) is listed as “no significant effect”; in test [1] (setting [5]), “significantly attenuated”; in test [1] (setting [7]), “significantly attenuated”; in test [3] (P>0.05), “no significant effect”. Also, the “rise in serum AST” value is “no significant effect” in test [1] (setting [4]), “significantly attenuated” in test [1] (setting [6]), “significantly attenuated” in test [1] (setting [8]) and “no significant effect” in test [3] (P>0.05). Moreover, the “rise in serum creatinine kinase” value in test [1] (setting [4]) is “no significant effect”; in test [1] (setting [6]), “significantly attenuated”; in test [1] (setting [8]), “significantly attenuated”. The “fractional excretion of sodium” value in test [2] (IRI+Vehicle 4.45±0.65) is 1.90±0.17%. In test [2] (IRI+Vehicle 34.13±2.23), this compound showed a serum urea of 21.63 ± 1.51 mmol/L. Moreover, the serum creatinine in test [2] (IRI+Vehicle 205.90±22.23) turned out to be 115.4 ± 9.72 µmol/L.
